Earlier results as cited in paper PMC7289749 (European Journal of Medicinal Chemistry, 2020).
Read-outs that look alike come from different tables or passages of the source.

Assays:
[1] = system: SARS-CoV-2
[2] = system: SARS-CoV-2; settings: for EC50: read-out: EC50 (half-maximal effective concentration)
[3] = system: Vero E6 cells; settings: read-out: CC50 (half-maximal cytotoxic concentration)
[4] = in animals, relative to CQ
[5] = system: SARS-CoV-2; settings: human liver cancer Huh-7 cells
[6] = system: SARS-CoV-2 Mpro; settings: read-out: SARS-CoV-2 Mpro inhibitory activity IC50
[7] = system: SARS-CoV-2; settings: read-out: inhibition on the replication of SARS-CoV-2 EC50; dose-dependent

Row | Molecule | selectivity index (SI) ([2]; CC50/EC50, Vero E6 cells) | CC50 [3] [µM] | also measured
1 | O=c1c2ccccc2[se]n1-c1ccccc1 [Ebselen] |  |  | anti-viral activity in cell-based assays [1]: effective anti-viral activity
2 | CC(=O)Oc1ccccc1C(=O)Nc1ncc([N+](=O)[O-])s1 [Nitazoxanide] | > 16.76 | > 35.5 | EC50 [2]: 2.12 µM
3 | CCN(CCO)CCCC(C)Nc1ccnc2cc(Cl)ccc12 (stereo not shown) [Hydroxychloroquine] |  |  | less toxic than CQ [4]: about 40%
4 | CCN(CC)CCCC(C)Nc1ccnc2cc(Cl)ccc12 (stereo not shown) [Chloroquine] | > 88.50 |  | 
5 | Remdesivir |  |  | inhibition of virus infection [5]: inhibited virus infection
6 | NC(=O)c1ncn([C@@H]2O[C@H](CO)[C@@H](O)[C@H]2O)n1 [Ribavirin] | > 3.65 | > 400 | 
7 | Nc1nc2c(ncn2CCC(CO)CO)c(=O)[nH]1 [Penciclovir] | > 4.17 | > 400 | EC50 [2]: 96 µM
8 | NC(=O)c1nc(F)c[nH]c1=O [Favipiravir] |  | > 400 | 
9 | O=c1cc(-c2ccccc2)oc2cc(O)c(O)c(O)c12 [Baicalein] |  |  | IC50 [6]: […]; EC50 [7]: 1.69 µM
10 | N=C(N)Nc1ccc(C(=O)Oc2ccc3cc(C(=N)N)ccc3c2)cc1 [Nafamostat] |  |  | selectivity index (SI) [2]: > 4.44
